For orientation: IC50 means the concentration that gives 50% inhibition.

The text below walks through data of US9499493B2, “2,4-pyrimidinediamine compounds and their uses” (Rigel Pharmaceuticals, Inc., priority 2002, dated 2016).

Assay [1] concerns FcγRI-mediated degranulation. The assay can be described thus: FcγRI receptor-mediated degranulation (activation with anti-human IgG Fab fragment). Conditions: cells not primed with IgE, activated with rabbit anti-human IgG Fab fragment. The class given is cell-based.
Assay [2] has as its system cultured human mast cells (CHMC). Nature of the assay: CHMC low cell density IgE activation: tryptase assay. The class given is cell-based. Particulars: anti-IgE. Summed up: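 CHMC resuspended in pre-warmed MT buffer at 1000-1500 cells/well (donor-dependent) and preincubated 1 hr at 37° C, then stimulated with anti-IgE for 30 min at 37° C; unstimulated wells got MT alone. Supernatant tryptase activity read with tryptase substrate after 30 min at room temperature.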

For assay [3], the system named is bone marrow derived mast cells (BMMC). Nature of the assay: BMMC high cell density IgE activation: hexosaminidase. The format is cell-based, mouse. Particulars: anti-IgE, second part of TABLE 1, read-out: BMMC anti-IgE hexos. IC50. How it is done: (§1) After sensitizing, cells are counted, pelleted (1000 rpm, 5-10 minutes), and resuspended at 1-3×10^6 cells/ml in MT buffer. Add 100 ul of cell suspension to each well and 100 ul of compound dilutions. The final vehicle concentration is 0.5% DMSO. Incubate at 37° C. (5% CO2) for 1 hour. After 1 hour of compound treatment, stimulate cells with 6× stimulus (60 ng/ml DNP-BSA). Mix wells with the cells and allow plates to incubate at 37° C. (5% CO2) for one hour. After 1 hour incubation, pellet cells (10 minutes, 1000 RPM) and collect 200 ul per well of the supernatant, being careful not to disturb pellet, and transfer to a clean tube or 96-well plate. Place the supernatant plate on ice. During the 4-5 hour step (see next) perform the hexosiminidase assay. Resuspend cell pellet in 240 ul WEI-conditioned media containing 0.5% DMSO and corresponding concentration of compound. Incubate BMMC cells for 4-5 hours at 37° C. (5% CO2). After incubation, pellet cells (1000 RPM, 10 minutes) and collect 225 ul per well and place in −80° C. until ready to perform ELISAS. ELISAS are performed on appropriately diluted samples (determined empirically for each donor cell population so that the sample measurement falls within the standard curve) following the supplier's instructions.
Hexosaminidase assay: In a solid black 96-well assay plate, add 50 uL hexosaminidase substrate (4-methylumbelliferyl-N-acetyl-(3-D-glucosaminide; 2 mM) to each well. Add 50 uL of BMMC cell supernatant (see above) to the hexoseaminidase substrate, place at 37° C. for 30 minutes and read the plate at 5, 10, 15, and 30 minutes on a spectrophotometer.

The subject of assay [4] is cultured human mast cells (CHMC). Nature of the assay: CHMC low cell density ionomycin activation: tryptase assay. The class given is cell-based.
In assay [5] the test system is IgE-induced degranulation of tissue mast cells. Nature of the assay: Mouse model of passive cutaneous anaphylaxis (PCA). The format is in vivo. Particulars: for % Inhibition (PCA): PO, 67% PEG/33% citrate buffer, pretreatment 15 min; for PCA response, positive controls (in words): mouse, in vivo. How it is done:
This model provides a direct measure of IgE-induced degranulation of tissue mast cells. In this model, IgE primed animals are exposed to an allergen challenge, and the change in permeability of dermal vasculature that results from histamine release from mast cells is measured by change in the amount of dye leakage into surrounding tissue. Inhibition of mediator release by compounds that modulate mast cell degranulation is easily measured by extracting the dye from the tissue.
In the PCA assay mice are passively sensitized by intradermal injection with anti-dinitrophenol (DNP) IgE antibodies (Day −1). At predetermined times animals are treated with the test agent (Day 0). The modulatory effect of the agent on cutaneous mast cell degranulation is measured following intravenous injection of DNP conjugated to human serum albumin (HSA-DNP), together with Evans blue dye. The resulting cross-linking of the IgE receptor and subsequent mast cell degranulation-induced increase in vascular permeability is determined by measuring the amount of dye extravasation into the tissue. Dye is extracted from the tissue by formamide, and the absorbance of this extract is read at 620 nm.

Assay [6] concerns bone marrow derived mast cells (BMMC). The assay can be described thus: BMMC high cell density IgE activation: LTC4. The class given is cell-based, mouse. Particulars: anti-IgE, second part of TABLE 1. How it is done: (§2) Inhibition of degranulation was measured at both low and high cell density by quantifying the release of the granule specific factors tryptase, histamine and hexosaminidase. Inhibition of release and/or synthesis of lipid mediators was assessed by measuring the release of leukotriene LTC4 and inhibition of release and/or synthesis of cytokines was monitored by quantifying TNF-α, IL-6 and IL-13. Tryptase and hexosaminidase were quantified using fluorogenic substrates as described in their respective examples. […] The protocols of the various assays are provided below.
as §1

Assay [7] has the same test system. The assay can be described thus: BMMC high cell density IgE activation: histamine. The class given is cell-based, mouse. Conditions: anti-IgE, second part of TABLE 1. How it is done: as §2, §1
Assay [8] shares this test system. The assay can be described thus: BMMC high cell density IgE activation: IL-6. The format is cell-based, mouse. Particulars: anti-IgE, second part of TABLE 1. The protocol:
as §2, §1

Assay [9] shares this test system. Nature of the assay: BMMC high cell density IgE activation: TNFalpha. The class given is cell-based, mouse. Conditions: anti-IgE, second part of TABLE 1, read-out: BMMC anti-IgE TNF-alpha IC50. How it is done: as §2, §1

Where only a bound is given, the exact number is not on record here.

For `CNC(=O)COc1cccc(Nc2ncc(F)c(Nc3ccc4c(c3)NC(=O)C(F)(F)O4)n2)c1` [R921303, N4-[(2,2-Difluoro-4H-benzo[1,4]oxazin-3-one)-6-yl]-5-fluoro-N2-[3-(methylaminocarbonylmethyleneoxy)phenyl]-2,4-pyrimidinediamine], the “FcγRI-mediated degranulation (in words)” value in assay [1] is given as “inhibit FcγRI-mediated degranulation”.
As for `CCOC(=O)COc1ccc(Nc2ncc(F)c(Nc3ccc4c(c3)OCCO4)n2)cc1` [R925747, N2-(4-Ethoxycarbonylmethyleneoxyphenyl)-N4-(3,4-ethylenedioxyphenyl)-5-fluoro-2,4-pyrimidinediamine], the IC50 is 1020 nM in [2], 3100 nM in [3] and 3100 nM in assay [4].
Take `Fc1cnc(Nc2ccc3c(c2)OCCO3)nc1Nc1ccc2c(c1)OCCO2` [R926109, N2,N4-Bis(3,4-ethylenedioxyphenyl)-5-fluoro-2,4-pyrimidinediamine]: the “% Inhibition (PCA)” value is 22% in [5] (50 mg/kg), 32% in assay [5] (100 mg/kg) and 48% in assay [5] (200 mg/kg). The “FcεR-mediated vascular leakage with increasing doses (in words)” value in [5] (solution (67% PEG/33% citrate buffer) or aqueous suspension (1.5% Avicel)) is on record as “dose-dependent inhibition”.
For the molecule `CNC(=O)COc1cccc(Nc2nc(Nc3cccc(O)c3)ncc2C(F)(F)F)c1` [R926741, N2-(3-Hydroxyphenyl)-5-trifluoromethyl-N4-[3-(N-methylamino)carbonylmethyleneoxyphenyl]-2,4-pyrimidinediamine], the IC50 in assay [6] was over 10000 nM; in assay [7], 1020 nM; in assay [8] it was 537 nM; in assay [2] it was 2910 nM; in assay [9], 772 nM; in [3] it was 961 nM. Further, in [4], the IC50 was over 10000 nM.
`O=C(NC(CO)CO)c1cc2cc(Nc3ncc(F)c(Nc4ccc5c(c4)OCCO5)n3)ccc2o1` [R926785, N2-[2-(N-1,3-Dihydroxy-2-propylamino)carbonylbenzofuran-5-yl]-N4-(3,4-ethylenedioxyphenyl)-5-fluoro-2,4-pyrimidinediamine]: the IC50 is 1410 nM in assay [6]; 561 nM in assay [7]; 513 nM in assay [8]; 1310 nM in assay [9]; 989 nM in [3]; over 10000 nM in assay [4].
As for `Cc1cc(Nc2ncc(F)c(Nc3ccc4c(c3)NC(=O)C(F)(F)O4)n2)cc(Cl)c1O` [R926971], in assay [1], the “FcγRI-mediated degranulation (in words)” value is recorded as “inhibit FcγRI-mediated degranulation”.
`Oc1cccc(Nc2ncc(F)c(Nc3ccc(OCc4nc(-c5ccccc5)no4)cc3)n2)c1` [R935138, 5-Fluoro-N2-(3-hydroxyphenyl)-N4-[4-(3-phenyl-1,2,4-oxadiazol-5-yl)methyleneoxyphenyl]-2,4-pyrimidinediamine]: the 50% inhibitory concentration (IC50) in assay [6] is 373 nM; in assay [7], under 220 nM; in assay [8] it was under 220 nM; in assay [2], 96 nM; in assay [9] it was 409 nM; in assay [3], under 220 nM. The molecule further had an IC50 in [4] of 552 nM.
With `Oc1cccc(Nc2nc(Nc3ccc4cn[nH]c4c3)ncc2F)c1` [R935191, 5-Fluoro-N4-(3-hydroxyphenyl)-N2-(indazolin-6-yl)-2,4-pyrimidinediamine], the IC50 in [6] was 213 nM; in assay [9] it was 71 nM; in assay [3] it was 68 nM; in assay [4], over 10000 nM.
For `Cn1ncc2cc(Nc3ncc(F)c(Nc4cccc(O)c4)n3)ccc21` [R935194, 5-Fluoro-N4-(3-hydroxyphenyl)-N2-(1-methy-indazoline-5-yl)-2,4-pyrimidinediamine], the IC50 in [6] is 493 nM; in assay [7] it was 54 nM; in assay [8], 34 nM; in [4] it was over 10000 nM.
Take `Cc1cc(Nc2nc(Nc3cccc(OCC(=O)N4CCOCC4)c3)ncc2F)cc(Cl)c1O` [R940265, N4-(3-Chloro-4-hydroxy-5-methylphenyl)-5-fluoro-N2-[3-(N-morpholino)carbonylmethyleneoxyphenyl]-2,4-pyrimidinediamine]: the IC50 worked out at 1210 nM in assay [6]; 306 nM in [7]; 486 nM in [8]; 239 nM in [2]; 1130 nM in assay [9]; 981 nM in assay [3]. In addition, in assay [4], the IC50 was over 10000 nM.
Turning to `CNC(=O)COc1cccc(Nc2ncc(F)c(Nc3cccc(C(C)(C)C)c3)n2)c1` [R940276, N4-(3-tert-Butylphenyl)-N2-[3-(N-methylamino)carbonylmethyleneoxyphenyl]-5-fluoro-2,4-pyrimidinediamine], the IC50 in assay [6] was 332 nM; in [7], 73 nM; in assay [8], under 56 nM; in assay [2], 211 nM; in [9] it was 251 nM; in assay [3], 136 nM. The same molecule registered an IC50 in assay [4] of over 10000 nM.
Regarding `CC(C)(C)c1cccc(Nc2nc(Nc3cccc(OCC(=O)NCC(O)CO)c3)ncc2F)c1` (stereo not shown) [R940277, N4-(3-tert-Butylphenyl)-N2-[3-(N-2,3-dihydroxypropylamino)carbonylmethyleneoxyphenyl]-5-fluoro-2,4-pyrimidinediamine], the IC50 in assay [6] was 625 nM; in assay [7], 315 nM; in assay [8], 181 nM; in [9], 262 nM; in assay [3], 279 nM; in [4], over 10000 nM.
Take `CC(C)c1cccc(Nc2nc(Nc3cccc(OCC(=O)NCC(O)CO)c3)ncc2F)c1` (stereo not shown) [R940290, N2-[3-(N-2,3-Dihydroxypropylamino)carbonylmethyleneoxyphenyl]-5-fluoro-N4-(3-isopropylphenyl)-2,4-pyrimidinediamine]: the IC50 in [6] was 590 nM; in assay [7], 545 nM; in assay [8] it was 100 nM; in assay [4], over 10000 nM.
As for `CNC(=O)COc1cccc(Nc2ncc(F)c(Nc3ccc4c(n3)NC(=O)C(C)(C)O4)n2)c1` [R940347, N4-[(2,2-Dimethyl-4H-5-pyrido[1,4]oxazin-3-one)-6-yl]-5-fluoro-N2-[3-(methylaminocarbonylmethyleneoxy)phenyl]-2,4-pyrimidinediamine], the half-inhibitory concentration (IC50) in [2] amounted to 63 nM. For the same molecule, the “FcγRI-mediated degranulation (in words)” value in [1] is reported as “inhibit FcγRI-mediated degranulation”.
As to `CNC(=O)CNc1cccc(Nc2ncc(F)c(Nc3ccc4c(c3)OCCO4)n2)c1` [R950191], the IC50 in assay [6] was 401 nM; in [7], over 2000 nM; in [8], under 220 nM; in assay [2], 178 nM; in assay [9], under 220 nM; in assay [3], under 220 nM. In assay [4], this molecule showed an IC50 of over 10000 nM.
With `CN1CCC(=C2c3ccccc3C=Cc3ccccc32)CC1` [cyproheptadine, reference compound], the “inhibition of the PCA response” value in assay [5] (8 mg/kg, i.p., 30 minutes pretreatment time, n=23 experiments) is on record as 61%. Besides, the “PCA response, positive controls (in words)” value in assay [5] is “inhibit the PCA response”.
In the case of `CN(C)CCOC(c1ccccc1)c1ccccc1` [diphenhydramine, reference compound], the “PCA response, positive controls (in words)” value in [5] is “inhibit the PCA response”.
